The term Emax denotes the size of the effect at its maximum, as opposed to the concentration needed. Broadly, the EC50 is the concentration that produces a half-maximal response. Lower therefore signals higher potency in that assay. What is called Kd is the free concentration of one partner at which half of the binding sites on the other are occupied at equilibrium, for simple one-to-one binding.

The target in experiment [1] is RARα (Homo sapiens, UniProt P10276, E106G/G107S/G110V). The experiment in a line: PGR assay (RAR-P-GR holoreceptor transactivation), RARα. Type of experiment: cell-based. The following applies: for Emax: 18 h; for EC50: PGR assay (transactivation), CV-1 cells, luciferase reporter. An excerpt: (§1) A holoreceptor transactivation assay and a ligand binding assay which measure the antagonist/agonist like activity of the compounds of the invention, or their ability to bind to the several retinoid receptor subtypes, respectively, are described in published PCT Application No. WO WO93/11755 (particularly on pages 30-33 and 37-41) published on Jun. 24, 1993, the specification of which is also incorporated herein by reference. A detailed experimental procedure for holoreceptor transactivations has been described by Heyman et al. Cell 1992, 68, 397-406; Allegretto et al. J. Biol. Chem. 1993 268, 26625-26633, and Mangelsdorf et al. The Retinoids: Biology, Chemistry and Medicine, pp 319-349, Raven Press Ltd., New York, which are expressly incorporated herein by reference. The results obtained in this assay are expressed in EC50 numbers, as they are also in the chimeric receptor transactivation assay. The results of ligand binding assay are expressed in Kd numbers. (See Cheng et al. Biochemical Pharmacology 22, 3099-3108, expressly incorporated herein by reference.) Still another transactivation assay, the “PGR assay” is described in the publication Klein et al. J. Biol. Chem. 1996, 271, 22692-22696, which is expressly incorporated herein by reference, and a detailed description is also provided below. The results of the PGR assay are also expressed in EC50 numbers (nanomolar concentration).
RARα (Homo sapiens, UniProt P10276, E106G/G107S/G110V), sequence (P10276 whole entry E106G/G107S/G110V): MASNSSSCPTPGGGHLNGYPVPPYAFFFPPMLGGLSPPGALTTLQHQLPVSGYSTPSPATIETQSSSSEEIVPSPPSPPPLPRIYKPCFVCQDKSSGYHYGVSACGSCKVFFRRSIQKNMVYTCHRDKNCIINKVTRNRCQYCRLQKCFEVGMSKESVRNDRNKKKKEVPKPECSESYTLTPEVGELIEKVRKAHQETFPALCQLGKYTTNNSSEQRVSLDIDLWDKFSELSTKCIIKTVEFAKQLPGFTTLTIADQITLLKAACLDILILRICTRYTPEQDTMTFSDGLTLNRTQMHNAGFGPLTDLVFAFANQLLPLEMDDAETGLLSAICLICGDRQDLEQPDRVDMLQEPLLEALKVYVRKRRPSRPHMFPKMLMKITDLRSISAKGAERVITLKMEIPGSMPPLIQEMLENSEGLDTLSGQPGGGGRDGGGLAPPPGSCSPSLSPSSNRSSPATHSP
RARα (Homo sapiens, UniProt P10276, E106G/G107S/G110V), sequence (P19793 whole entry, further chain): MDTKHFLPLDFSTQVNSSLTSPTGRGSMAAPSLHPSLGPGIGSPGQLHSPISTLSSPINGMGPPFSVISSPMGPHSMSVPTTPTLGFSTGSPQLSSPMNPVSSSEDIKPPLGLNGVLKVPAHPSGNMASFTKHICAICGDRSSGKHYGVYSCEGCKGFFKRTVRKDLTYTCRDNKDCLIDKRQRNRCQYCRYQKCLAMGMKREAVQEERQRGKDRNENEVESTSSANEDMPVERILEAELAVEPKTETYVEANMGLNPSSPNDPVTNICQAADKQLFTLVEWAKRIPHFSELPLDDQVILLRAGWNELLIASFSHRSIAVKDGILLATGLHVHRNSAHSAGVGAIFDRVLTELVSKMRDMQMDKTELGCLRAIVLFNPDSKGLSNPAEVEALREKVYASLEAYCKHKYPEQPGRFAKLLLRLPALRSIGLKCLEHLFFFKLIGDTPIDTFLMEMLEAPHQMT
(§2) RAR-P-GR holoreceptor Transactivation Assay
(§3) CV-1 cells (4×10^5 cells/well) were transiently transfected with the luciferase reporter plasmid MTV-4(R5G)-Luc (0.7 μg/well) containing four copies of the R5G retinoid DNA response element along with the RXRα expression plasmid pRS-hRXRa (0.1 μg/well) and one of the RAR-P-GR expression plasmids (0.05 μg/well) in 12 well plates via calcium phosphate precipitation Chen et al. Mol. Cell. Biol. 1987, 7, 2745-2752 as described by Klein et al. J. Biol. Chem. 1996, 271, 22692, referenced above. The three different RAR-P-GR expression plasmids, pRS-RARα-P-GR, pcDNA3-RARβ-P-GR and pcDNA3-RARγ-P-GR, express RARα, RARβ and RARγ receptors, respectively, which contain modified DNA binding domains such that their “P-boxes” have been altered to that of the glucocorticoid receptor. These RAR-P-GR receptors bind to DNA as heterodimeric complexes with RXR. Specifically, the RAR-P-GR receptors bind retinoic acid response elements designated R5G, comprised of two RAR half sites (nucleotide sequence 5′-GGTTCA-3′) separated by 5 base pairs in which the 3′-half site has been modified to that of a glucocorticoid receptor half site, 5′-AGAACA-3′. To allow for various in transfection efficiency a β-galactosidase expression plasmid (0.01 μg/well) was used as an internal control. Alternatively, the assay was performed in a 96-well microtiter plate format (5000 cells/well) in a manner which was identical to that described above except ⅕ of the amount of the DNA-calcium phosphate precipitant (20 μl instead of 100 Al) was applied to each well. Eighteen hours after introduction of the DNA precipitants, cells were rinsed with phosphate buffered saline (PBS) and fed with D-MEM (Gibco-BRL) containing 10% activated charcoal extracted fetal bovine serum (Gemini Bio-Products). After rinsing with PBS cells were lysed with luciferase activity was measured as previously described in de Wet Mol. Cell. Biol. 1987, 7, 725-737. Luciferase values represent the mean±SEM of triplicate determinations normalized to β-galactosidase activity. The results of the PGR assay are also expressed in EC50 numbers (nanomolar concentration).
(Reporter assays use an easily measured gene product as a stand-in for the process of interest.)

Experiment [2] addresses RARβ (Homo sapiens, UniProt P10826, E106G/G107S/G110V). The experiment in a line: PGR assay (RAR-P-GR holoreceptor transactivation), RARβ. To be noted: for Emax: 18 h; for EC50: PGR assay (transactivation), CV-1 cells, luciferase reporter. It is filed as cell-based.
From the text: as §1, §2, §3

Experiment [3] concerns the target T1, RARα (Homo sapiens, UniProt P10276).
T1 sequence (P10276 1-462): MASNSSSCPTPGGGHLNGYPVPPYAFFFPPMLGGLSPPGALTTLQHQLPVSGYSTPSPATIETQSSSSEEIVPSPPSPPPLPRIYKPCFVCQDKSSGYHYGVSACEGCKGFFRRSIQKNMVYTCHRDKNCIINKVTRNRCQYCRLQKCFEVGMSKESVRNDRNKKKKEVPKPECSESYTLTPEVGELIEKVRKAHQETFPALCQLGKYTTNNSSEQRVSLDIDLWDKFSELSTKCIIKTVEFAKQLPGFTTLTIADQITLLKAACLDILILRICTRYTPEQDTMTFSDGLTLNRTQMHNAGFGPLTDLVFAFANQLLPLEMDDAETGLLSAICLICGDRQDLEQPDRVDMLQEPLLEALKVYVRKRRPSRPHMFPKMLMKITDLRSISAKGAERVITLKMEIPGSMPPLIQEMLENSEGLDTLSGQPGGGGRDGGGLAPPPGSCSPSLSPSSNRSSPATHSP
The experiment in a line: Ligand binding assay, RARα.
From the text: as §1

For experiment [4], the target named is T2, RARβ (Homo sapiens, UniProt P10826).
T2 sequence (P10826 1-455): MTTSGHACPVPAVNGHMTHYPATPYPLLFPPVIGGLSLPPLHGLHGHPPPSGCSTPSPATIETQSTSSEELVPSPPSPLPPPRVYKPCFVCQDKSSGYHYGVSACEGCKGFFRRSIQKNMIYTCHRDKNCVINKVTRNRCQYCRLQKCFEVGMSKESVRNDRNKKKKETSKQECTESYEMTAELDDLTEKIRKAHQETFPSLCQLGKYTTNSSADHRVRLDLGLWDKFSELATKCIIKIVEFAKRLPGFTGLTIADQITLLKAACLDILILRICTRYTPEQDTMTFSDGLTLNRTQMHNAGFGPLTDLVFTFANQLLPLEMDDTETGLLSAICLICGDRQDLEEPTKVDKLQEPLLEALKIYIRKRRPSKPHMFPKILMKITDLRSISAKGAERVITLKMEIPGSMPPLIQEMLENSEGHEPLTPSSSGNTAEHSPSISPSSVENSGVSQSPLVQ
The experiment in a line: Ligand binding assay, RARβ. To be noted: read-out: Kd RABβ.
From the text: as §1

Where [5] appears, read: efficiency relative to all-trans-retinoic acid, PGR assay.

RARβ (Homo sapiens, UniProt P10826, E106G/G107S/G110V), sequence (P19793 whole entry): as the sequence (P19793 whole entry, further chain) above
RARβ (Homo sapiens, UniProt P10826, E106G/G107S/G110V), sequence (P10826 whole entry E106G/G107S/G110V): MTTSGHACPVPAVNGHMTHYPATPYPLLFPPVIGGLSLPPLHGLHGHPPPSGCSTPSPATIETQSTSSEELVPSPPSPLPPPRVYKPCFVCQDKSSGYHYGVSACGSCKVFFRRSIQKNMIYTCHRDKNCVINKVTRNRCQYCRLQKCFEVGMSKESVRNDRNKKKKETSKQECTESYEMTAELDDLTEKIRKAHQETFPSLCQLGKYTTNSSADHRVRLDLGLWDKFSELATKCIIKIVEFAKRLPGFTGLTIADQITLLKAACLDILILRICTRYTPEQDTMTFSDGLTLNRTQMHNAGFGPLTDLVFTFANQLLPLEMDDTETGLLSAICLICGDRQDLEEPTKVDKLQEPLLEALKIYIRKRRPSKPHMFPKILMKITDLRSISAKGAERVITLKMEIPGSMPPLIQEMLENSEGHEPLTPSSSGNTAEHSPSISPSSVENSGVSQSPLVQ

As for `CC(C)(C)c1ccc(C#Cc2ccc(C(=O)O)c(F)c2)cc1Oc1ccc([N+](=O)[O-])cc1` [Compound 11, 4-[[4′-tert-Butyl-3′-(4″-nitro)phenoxy]phenylethynyl]-2-fluoro-benzoic Acid], the Emax on RARα [1] (setting [5]) worked out at 0%; on RARβ [2] (setting [5]), 3%. Further, the EC50 on RARα [1] and at RARβ [2] was more than 10000 nM throughout. In addition, the figures for the Kd at RARα [3] and at RARβ [4] were 24 nM and 34 nM, respectively.
As to `COC(=O)c1ccc(Oc2cc(C#Cc3ccc(C(=O)O)c(F)c3)ccc2C(C)(C)C)cc1` [Compound 10, 4-[[4′-tert-Butyl-3′-(4″-carbomethoxy)phenoxy]phenylethynyl]-2-fluorobenzoic Acid], the Emax at RARα [1] (setting [5]) and at RARβ [2] (setting [5]) was 0% in each case. In addition, the EC50 on RARα [1] and on RARβ [2] was more than 10000 nM in each case. The Kd came out at 15 nM on RARα [3] and 14 nM on RARβ [4].
In the case of `CC(C)(C)c1ccc(C(=O)Nc2ccc(C(=O)O)c(F)c2)cc1Oc1ccc(C(F)(F)F)cc1` [Compound 13, 4-[[4′-tert-Butyl-3′-(4″-trifluoromethyl)phenoxy]benzoylamino]-2-fluorobenzoic Acid], the Emax on RARα [1] (setting [5]) was 0%; at RARβ [2] (setting [5]), 5%. The EC50 at RARα [1] and at RARβ [2] was more than 10000 nM each time. Moreover, the Kd is 11 nM at RARα [3] and 4570 nM on RARβ [4].
In the case of `CC(C)(C)c1ccc(C#Cc2ccc(C(=O)O)cn2)cc1Oc1ccc(C(F)(F)F)cc1` [Compound 6, 6-[[4′-tert-Butyl-3′-(4″-trifluomethyl)phenoxy]phenylethynyl]-3-nicotinic Acid], the EC50 at RARα [1] and on RARβ [2] was more than 10000 nM each time. Moreover, at RARα [1] (setting [5]), the “% Efficiency RARα” value turned out to be 0%. Moreover, the “% Efficiency RARβ” value at RARβ [2] (setting [5]) is on record as 0%. Moreover, the values for the Kd on RARα [3] and on RARβ [4] were 1050 nM and 113 nM, respectively.

The values are drawn from patent US6660755B2, “Substituted diaryl or diheteroaryl methans, ethers and amines having retinoid agonist, antagonist or inverse agonist type biological activity” (Allergan, Inc., priority 1997, dated 2003).
